Data on one compound can be found in patent US8183283B2, “Dendrite elongation inhibitor for melanocyte and skin preparation for external use containing the same” (Pola Chemical Industries Inc., priority 2002, dated 2012).

In the assay the test system is Normal human melanocyte. The experiment in a line: Inhibitory action on the elongation of dendrites using human melanocytes. Format: cell-based. The source says: According to a method shown below, inhibitory action on the elongation of dendrites was examined using human melanocytes. (Reagent, etc.) Cells, basal media, and amplification additives were purchased from KURABO INDUSTRIES LTD.
(Cell) Normal human melanocyte
(Medium) Basal medium (Medium 1545) supplemented with reagents described below
(Reagent) Amplification additive: bovine pituitary extract (BPE) (final concentration of 0.4% v/v in the medium), fetal bovine serum (FBS) (final concentration of 0.5% v/v in the medium), human recombinant basic fibroblast growth factor (rFGF-B) (final concentration of 3 ng/ml in the medium), hydrocortisone (final concentration of 0.18 μg/ml in the medium), insulin (final concentration 5 μg/ml in the medium), transferrin (final concentration of 5 μg/ml in the medium), phorbol 12-myristate 13-acetate (PMA) (final concentration of 10 ng/ml in the medium), heparin (final concentration of 3 μg/ml in the medium), and PSA solution (mixture solution of penicillin concentration of 50,000 Unit/ml, streptomycin concentration of 50 μg/ml, and amphotericin B concentration of 12.5 μg/ml; 1-ml addition with respect to 500 ml of the medium) (Method) […]

For the compound `COc1ccc(-c2oc3cc(O)c(OC)c(O)c3c(=O)c2OC)cc1O` [Centaureidin, 5,7-dihydroxy-3,6-dimethoxy-2-(5-hydroxy-4-methoxyphenyl)-4H-1-benzopyran-4-on], the “Inhibition against the elongation of dendrites (in words)” value (24 hours after addition of the sample solution, versus control) was “elongation is inhibited”. For the same compound, the Length of dendrite (sample solution with 100 μg/ml Centaureidin, 50 μl added to 200 μl medium, observed 24 hours after addition, growth factor-supplemented medium) was found to be 26 ± 8 μm.
